Results as given in ChEMBL document CHEMBL1201862, “PubChem BioAssay data set” (2004).
“And” between values parts separate entries of the source, which are not always exact repeats. Equal values may be shown once.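 1) Cells in 96-well plates. 2) Compound, 48 h, 5 concentrations. 3) Linear interpolation between surrounding doses. 4) Unreached endpoint = highest concentration. The concentration for 50% growth inhibition is given as GI50.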 The source made the active and inactive calls. Cut-off read from the data, not from the text of the source: active = GI50 up to about 1.1 µM and inactive = higher. Starred links: 1 amine or outer side, 2 acyl side, 3 side chain; linkers in the order of their positions; H or OH if unused. Positions of bridges follow the written chain, without caps; N, C: chain ends. Non-standard residues stand in square brackets, D forms with d. Residues, ends and D or L forms follow the SMILES beside them. Chains are numbered I, II in the order given. Actinocin(9to1) = Cc1c2oc3c(C)ccc(C(=O)[*:1])c3nc-2c(C(=O)[*:2])c(N)c1=O; NMeY = CN[CH](Cc1ccc(O)cc1)C(=O)O; Sar = CNCC(=O)O

Key:
Assay in all cases: NCI tumour cell line growth inhibition, 48 h
786-0 = test system: 786-0
A498 = test system: A498
A549 = test system: A549
ACHN = test system: ACHN
CAKI-1 = test system: CAKI-1
CCRF-CEM = test system: CCRF-CEM
COLO 205 = test system: COLO 205
DU-145 = test system: DU-145
EKVX = test system: EKVX
HCC 2998 = test system: HCC 2998
HCT-116 = test system: HCT-116
HCT-15 = test system: HCT-15
HL-60 = test system: HL-60
HOP-62 = test system: HOP-62
HOP-92 = test system: HOP-92
HT-29 = test system: HT-29
Hs-578T = test system: Hs-578T
IGROV-1 = test system: IGROV-1
K562 = test system: K562
KM12 = test system: KM12
LOX IMVI = test system: LOX IMVI
M14 = test system: M14
MCF7 = test system: MCF7
MDA-MB-231 = test system: MDA-MB-231
MDA-MB-435 = test system: MDA-MB-435
MDA-N = test system: MDA-N
MOLT-4 = test system: MOLT-4
Malme-3M = test system: Malme-3M
NCI-H226 = test system: NCI-H226
NCI-H23 = test system: NCI-H23
NCI-H460 = test system: NCI-H460
NCI-H522 = test system: NCI-H522
NCI/ADR-RES = test system: NCI/ADR-RES
OVCAR-3 = test system: OVCAR-3
OVCAR-4 = test system: OVCAR-4
OVCAR-8 = test system: OVCAR-8
PC-3 = test system: PC-3
RPMI-8226 = test system: RPMI-8226
RXF 393 = test system: RXF 393
SF-268 = test system: SF-268
SF-295 = test system: SF-295
SF-539 = test system: SF-539
SK-MEL-28 = test system: SK-MEL-28
SK-MEL-2 = test system: SK-MEL-2
SK-MEL-5 = test system: SK-MEL-5
SK-OV-3 = test system: SK-OV-3
SN12C = test system: SN12C
SNB-19 = test system: SNB-19
SNB-75 = test system: SNB-75
SR = test system: SR
SW-620 = test system: SW-620
T47D = test system: T47D
TK-10 = test system: TK-10
U-251 = test system: U-251
UACC-257 = test system: UACC-257
UACC-62 = test system: UACC-62
UO-31 = test system: UO-31
BT-549 = test system: BT-549

In the case of `Clc1ccc(Cl)c(/N=N\c2cc3c4c(c2)CCN4CCC3)c1`, the GI50 (786-0) is reported as > 10 µM (inactive), the GI50 (A498) is reported as > 10 µM (inactive) and the GI50 (A549) is reported as > 10 µM (inactive). The GI50 (ACHN) was > 10 µM (inactive), the GI50 (CAKI-1) was > 10 µM (inactive) and the GI50 (CCRF-CEM) was > 10 µM (inactive). The GI50 (COLO 205) was > 10 µM (inactive), the GI50 (DU-145) was > 10 µM (inactive) and the GI50 (EKVX) was > 10 µM (inactive). The GI50 (HCC 2998) was > 10 µM (inactive), the GI50 (HCT-116) was > 10 µM (inactive) and the GI50 (HCT-15) was over 10 µM. The GI50 (HL-60) was > 10 µM (inactive), the GI50 (HOP-62) was > 10 µM (inactive) and the GI50 (HOP-92) was > 10 µM (inactive). For the same molecule, the GI50 (HT-29) was > 10 µM (inactive), the GI50 (Hs-578T) was > 10 µM (inactive) and the GI50 (IGROV-1) was > 10 µM (inactive). For the same molecule, the GI50 (K562) was > 10 µM (inactive), the GI50 (KM12) was > 10 µM (inactive) and the GI50 (LOX IMVI) was > 10 µM (inactive). For the same molecule, the GI50 (M14) was > 10 µM (inactive), the GI50 (MCF7) was > 10 µM (inactive) and the GI50 (MDA-MB-231) was > 10 µM (inactive). The GI50 (MDA-MB-435) was > 10 µM (inactive), the GI50 (MDA-N) was > 10 µM (inactive) and the GI50 (MOLT-4) was > 10 µM (inactive). For the same molecule, the GI50 (Malme-3M) was > 10 µM (inactive), the GI50 (NCI-H226) was > 10 µM (inactive) and the GI50 (NCI-H23) was > 10 µM (inactive). The GI50 (NCI-H460) was > 10 µM (inactive), the GI50 (NCI-H522) was > 10 µM (inactive) and the GI50 (NCI/ADR-RES) was > 10 µM (inactive). For the same molecule, the GI50 (OVCAR-3) was > 10 µM (inactive), the GI50 (OVCAR-4) was > 10 µM (inactive) and the GI50 (OVCAR-8) was > 10 µM (inactive). For the same molecule, the GI50 (PC-3) was > 10 µM (inactive), the GI50 (RPMI-8226) was > 10 µM (inactive) and the GI50 (RXF 393) was 8.65 µM (inactive). For the same molecule, the GI50 (SF-268) was > 10 µM (inactive), the GI50 (SF-295) was > 10 µM (inactive) and the GI50 (SF-539) was > 10 µM (inactive). The GI50 (SK-MEL-28) was > 10 µM (inactive), the GI50 (SK-MEL-2) was > 10 µM (inactive) and the GI50 (SK-MEL-5) was > 10 µM (inactive). For the same molecule, the GI50 (SK-OV-3) was > 10 µM (inactive), the GI50 (SN12C) was > 10 µM (inactive) and the GI50 (SNB-19) was > 10 µM (inactive). The GI50 (SNB-75) was > 10 µM (inactive), the GI50 (SR) was > 10 µM (inactive) and the GI50 (SW-620) was > 10 µM (inactive). The GI50 (T47D) was > 10 µM (inactive), the GI50 (TK-10) was > 10 µM (inactive) and the GI50 (U-251) was > 10 µM (inactive). For the same molecule, the GI50 (UACC-257) was > 10 µM (inactive), the GI50 (UACC-62) was > 10 µM (inactive) and the GI50 (UO-31) was > 10 µM (inactive).
For `COC(C)(C)C1(O)CCC(C)CC1=O` (centres undefined), the GI50 (786-0) was > 100 µM (inactive), the GI50 (BT-549) was > 100 µM (inactive) and the GI50 (CAKI-1) was > 100 µM (inactive). For the same molecule, the GI50 (COLO 205) was > 100 µM (inactive), the GI50 (HCC 2998) was > 100 µM (inactive) and the GI50 (HL-60) was 85.7 µM (inactive). For the same molecule, the GI50 (HOP-92) was > 100 µM (inactive), the GI50 (HT-29) was > 100 µM (inactive) and the GI50 (Hs-578T) was > 100 µM (inactive). For the same molecule, the GI50 (IGROV-1) was > 100 µM (inactive), the GI50 (MDA-N) was > 100 µM (inactive) and the GI50 (MOLT-4) was > 100 µM (inactive). The GI50 (NCI-H460) was > 100 µM (inactive), the GI50 (OVCAR-3) was > 100 µM (inactive) and the GI50 (OVCAR-8) was > 100 µM (inactive). The GI50 (PC-3) was > 100 µM (inactive), the GI50 (RXF 393) was > 100 µM (inactive) and the GI50 (SK-MEL-5) was > 100 µM (inactive). For the same molecule, the GI50 (SK-OV-3) was > 100 µM (inactive), the GI50 (SNB-19) was > 100 µM (inactive) and the GI50 (SR) was > 100 µM (inactive). The GI50 (U-251) was > 100 µM (inactive) and the GI50 (UO-31) was > 100 µM (inactive).
`Cc1c2oc3c(C)ccc(C(=O)NC4C(=O)NC(C(C)C)C(=O)N5CCCC5C(=O)N(C)CC(=O)N(C)C(Cc5ccc(O)cc5)C(=O)OC4C)c3nc-2c(C(=O)NC2C(=O)NC(C(C)C)C(=O)N3CCCC3C(=O)N(C)CC(=O)N(C)C(Cc3ccc(O)cc3)C(=O)OC2C)c(N)c1=O` (centres undefined) (I: TVP[Sar][NMeY] / II: TVP[Sar][NMeY]; ester I:1-I:C, II:1-II:C; linker I:N-II:N via Actinocin(9to1); configuration not given here) was tested, and the GI50 (BT-549) was 15 nM (active) and 17.3 nM (active), the GI50 (HL-60) was 4.3 nM (active) and 5.39 nM (active) and the GI50 (Hs-578T) was 3.71 nM (active) and 4.25 nM (active). The GI50 (IGROV-1) was 6.05 nM (active) and 7.46 nM (active), the GI50 (KM12) was 13.2 nM (active) and 17.1 nM (active) and the GI50 (MCF7) was 1.89 nM (active) and 2.16 nM (active). For the same molecule, the GI50 (NCI-H226) was 20.6 nM (active) and 39.3 nM (active), the GI50 (NCI-H522) was 2.25 nM (active) and 4.33 nM (active) and the GI50 (OVCAR-4) was 43 nM (active) and 42.6 nM (active). The GI50 (RPMI-8226) was 8.59 nM (active) and 7.03 nM (active), the GI50 (SF-268) was 11 nM (active) and 17.7 nM (active) and the GI50 (SF-539) was 12.4 nM (active) and 15.3 nM (active). For the same molecule, the GI50 (SK-MEL-2) was 9.06 nM (active) and 13.1 nM (active) and the GI50 (SN12C) was 5.69 nM (active) and 11 nM (active).
